Assay results as given in ChEMBL document CHEMBL1201862, “PubChem BioAssay data set” (2004).
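In this assay, cells in 96-well plates receive the compound at five concentrations for 48 hours. Endpoints are linearly interpolated between the surrounding concentrations. GI50 = concentration required for 50% inhibition of growth.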 Activity calls are given as the source filed them. Cut-off read from the data, not from the text of the source: active = GI50 up to about 1.1 µM and inactive = higher.

Legend:
Assay in all cases: DTP human tumour cell line panel, 48 h
786-0 = system: 786-0
A498 = system: A498
COLO 205 = system: COLO 205
Hs-578T = system: Hs-578T
IGROV-1 = system: IGROV-1
KM12 = system: KM12
M14 = system: M14
MCF7 = system: MCF7
NCI-H226 = system: NCI-H226
NCI-H23 = system: NCI-H23
NCI-H522 = system: NCI-H522
NCI/ADR-RES = system: NCI/ADR-RES
OVCAR-4 = system: OVCAR-4
RPMI-8226 = system: RPMI-8226
SK-MEL-28 = system: SK-MEL-28
SN12C = system: SN12C
SNB-19 = system: SNB-19
SW-620 = system: SW-620
T47D = system: T47D
UACC-62 = system: UACC-62

SMILES | GI50 (786-0) | GI50 (A498) | GI50 (COLO 205) | GI50 (Hs-578T) | GI50 (IGROV-1) | GI50 (KM12) | GI50 (M14) | GI50 (MCF7) | GI50 (NCI-H226) | GI50 (NCI-H23) | GI50 (NCI-H522) | GI50 (NCI/ADR-RES) | GI50 (OVCAR-4) | GI50 (RPMI-8226) | GI50 (SK-MEL-28) | GI50 (SN12C) | GI50 (SNB-19) | GI50 (SW-620) | GI50 (T47D) | GI50 (UACC-62)
CCCCn1c(C)c2c(c1C)C(=O)N(CC(O)CN1CCc3ccccc3C1)C2=O (stereo unspecified) | 45.8 µM (inactive) | 29.8 µM (inactive) | 37.8 µM (inactive) | > 100 µM (inactive) | > 100 µM (inactive) | 57 µM (inactive) | 40.1 µM (inactive) | 33.3 µM (inactive) | 68.7 µM (inactive) | 56.5 µM (inactive) | > 100 µM (inactive) | 59.7 µM (inactive) | 56.9 µM (inactive) | 76.9 µM (inactive) | > 100 µM (inactive) | 90.4 µM (inactive) | > 100 µM (inactive) | > 100 µM (inactive) | 35.6 µM (inactive) | 60 µM (inactive)
O=C1c2ccccc2C(=O)N1CCCSc1ccccc1 | > 100 µM (inactive) | 33 µM (inactive) | 66.1 µM (inactive) | > 100 µM (inactive) | 93.8 µM (inactive) | 94.4 µM (inactive) | 66.7 µM (inactive) | 78.3 µM (inactive) | > 100 µM (inactive) | 86.7 µM (inactive) | 66.8 µM (inactive) | 52 µM (inactive) | 71.9 µM (inactive) | 42.8 µM (inactive) | > 100 µM (inactive) | 71.3 µM (inactive) | > 100 µM (inactive) | > 100 µM (inactive) | 31.3 µM (inactive) | 71.6 µM (inactive)
C/C=C(\C)C(O)C(C)C(O)C/C=C(C)/C=C(\C)C/C(C)=C/C/C=C(\C)C(O)C(C)c1ccc(CCC)c(=O)o1 (stereo unspecified) | 20.8 µM (inactive) | 14.7 µM (inactive) | 3.78 µM (inactive) | 14.5 µM (inactive) | 14.6 µM (inactive) | 7.19 µM (inactive) | 14.9 µM (inactive) | 4.25 µM (inactive) | 21.1 µM (inactive) | < 0.01 µM (active) | 2 µM (inactive) | 2.8 µM (inactive) | 10 µM (inactive) | 16.1 µM (inactive) | 17.1 µM (inactive) | 16.6 µM (inactive) | 16.1 µM (inactive) | 12.3 µM (inactive) | 12.1 µM (inactive) | 9.86 µM (inactive)
N[C@@H]1c2c(Br)sc(Br)c2C(=O)[C@H]1Br | 23.1 µM (inactive) | 35.2 µM (inactive) | 1.88 µM (inactive) | 54.6 µM (inactive) | 20.6 µM (inactive) | 26.4 µM (inactive) | 20.6 µM (inactive) | 36.7 µM (inactive) | > 42.3 µM (inactive) | 24.8 µM (inactive) | 14.7 µM (inactive) | 22.2 µM (inactive) | 27.2 µM (inactive) | 7.45 µM (inactive) | 28.5 µM (inactive) | 24.9 µM (inactive) | 45.9 µM (inactive) | 18.7 µM (inactive) | 30.2 µM (inactive) | 20.5 µM (inactive)
CN(Cc1cc(Cl)cc(Cl)c1O)Cc1c(O)ccc2ccccc12 | 21 µM (inactive) | 17.1 µM (inactive) | 16.9 µM (inactive) | 19.1 µM (inactive) | 17.3 µM (inactive) | 19.9 µM (inactive) | 20.2 µM (inactive) | 17.5 µM (inactive) | 20.6 µM (inactive) | 18.4 µM (inactive) | 15 µM (inactive) | 20.6 µM (inactive) | 17.1 µM (inactive) | 25 µM (inactive) | 19.1 µM (inactive) | 21.2 µM (inactive) | 19.8 µM (inactive) | 31.7 µM (inactive) | 19.2 µM (inactive) | 15.5 µM (inactive)
CN(C)c1ccc(/C(F)=C(F)/C(F)=C(F)/C(F)=C(\F)c2ccc(Br)cc2)cc1 | 3.92 µM (inactive) | 16.7 µM (inactive) | 23.4 µM (inactive) | 17.2 µM (inactive) | 27.6 µM (inactive) | 9.53 µM (inactive) | 16.1 µM (inactive) | 9.46 µM (inactive) | 50 µM (inactive) | 14.8 µM (inactive) | 7.46 µM (inactive) | 6.4 µM (inactive) | 23.9 µM (inactive) | 32.7 µM (inactive) | > 100 µM (inactive) | 6.61 µM (inactive) | 23.7 µM (inactive) | 22.1 µM (inactive) | 34.7 µM (inactive) | 22.9 µM (inactive)
N#CCCC1C(C#N)C2(Cl)CC1(Cl)C(Cl)=C2Cl (stereo unspecified) | – | > 10 µM (inactive) | > 10 µM (inactive) | > 10 µM (inactive) | > 10 µM (inactive) | > 10 µM (inactive) | > 10 µM (inactive) | > 10 µM (inactive) | > 10 µM (inactive) | > 10 µM (inactive) | 3.59 µM (inactive) | > 10 µM (inactive) | > 10 µM (inactive) | > 10 µM (inactive) | > 10 µM (inactive) | > 10 µM (inactive) | > 10 µM (inactive) | > 10 µM (inactive) | > 10 µM (inactive) | > 10 µM (inactive)
CC[N+]1(C)CCC(O)(c2ccc(Cl)cc2)C(C(=O)c2ccc(Cl)cc2)C1 (stereo unspecified) | – | 27.9 µM (inactive) | 4.89 µM (inactive) | 12.5 µM (inactive) | 18.5 µM (inactive) | 16.9 µM (inactive) | 17.4 µM (inactive) | 1.1 µM (active) | 23.8 µM (inactive) | 17.4 µM (inactive) | 1.79 µM (inactive) | 24.2 µM (inactive) | 29.3 µM (inactive) | 1.73 µM (inactive) | 16 µM (inactive) | 22.1 µM (inactive) | 17.2 µM (inactive) | 1.82 µM (inactive) | 2.79 µM (inactive) | 14.7 µM (inactive)
C/C=C/C=C/C1=NN(c2cccc(S(=O)(=O)O)c2)C2(C1)C(Cl)C(=O)N2c1nc2ccccc2s1 (stereo unspecified) | 13.8 µM (inactive) | 16.3 µM (inactive) | 18.3 µM (inactive) | 25.2 µM (inactive) | 11 µM (inactive) | 13.6 µM (inactive) | 15.1 µM (inactive) | 13.4 µM (inactive) | 14.3 µM (inactive) | 15.1 µM (inactive) | 4.22 µM (inactive) | 27.2 µM (inactive) | 13.7 µM (inactive) | 17.3 µM (inactive) | 20.6 µM (inactive) | 14.9 µM (inactive) | 15.2 µM (inactive) | 20.2 µM (inactive) | 4.6 µM (inactive) | 13 µM (inactive)
O=C1NC(N/N=C/c2ccccc2)=N/C1=C\c1ccco1 | 22.3 µM (inactive) | > 100 µM (inactive) | 57.4 µM (inactive) | 31.5 µM (inactive) | 16.9 µM (inactive) | 47.6 µM (inactive) | 46.2 µM (inactive) | 40.2 µM (inactive) | 35.5 µM (inactive) | 26.4 µM (inactive) | 26.1 µM (inactive) | 32.7 µM (inactive) | 38.5 µM (inactive) | 21.1 µM (inactive) | 51.8 µM (inactive) | 35.6 µM (inactive) | 36.5 µM (inactive) | 46 µM (inactive) | 26.9 µM (inactive) | 28.7 µM (inactive)
CC(=O)Nc1ccc2nc(N)n[n+]([O-])c2c1 | > 100 µM (inactive) | > 100 µM (inactive) | > 100 µM (inactive) | 92.3 µM (inactive) | > 100 µM (inactive) | > 100 µM (inactive) | > 100 µM (inactive) | > 100 µM (inactive) | > 100 µM (inactive) | > 100 µM (inactive) | > 100 µM (inactive) | > 100 µM (inactive) | > 100 µM (inactive) | > 100 µM (inactive) | > 100 µM (inactive) | > 100 µM (inactive) | > 100 µM (inactive) | > 100 µM (inactive) | 79.8 µM (inactive) | > 100 µM (inactive)
CCCCOc1ccc(/C=C/C2=[N+](CCO)CCO2)cc1 | 54.1 µM (inactive) | > 100 µM (inactive) | 24.7 µM (inactive) | > 100 µM (inactive) | 85.5 µM (inactive) | 34 µM (inactive) | 76.7 µM (inactive) | 29.4 µM (inactive) | 27.2 µM (inactive) | > 100 µM (inactive) | 21.5 µM (inactive) | 78 µM (inactive) | > 100 µM (inactive) | 26.8 µM (inactive) | > 100 µM (inactive) | 97.3 µM (inactive) | > 100 µM (inactive) | 33.6 µM (inactive) | 30.5 µM (inactive) | > 100 µM (inactive)
O=S(=O)(O)C1CCC(O)C2NCCCC21 (stereo unspecified) | > 100 µM (inactive) | > 100 µM (inactive) | > 100 µM (inactive) | > 100 µM (inactive) | > 100 µM (inactive) | > 100 µM (inactive) | > 100 µM (inactive) | > 100 µM (inactive) | > 100 µM (inactive) | – | > 100 µM (inactive) | > 100 µM (inactive) | > 100 µM (inactive) | > 100 µM (inactive) | > 100 µM (inactive) | > 100 µM (inactive) | > 100 µM (inactive) | > 100 µM (inactive) | > 100 µM (inactive) | > 100 µM (inactive)
CC1ON2CCCC2[C@H]1C(=O)N1C2CC3CCC2(CS1(=O)=O)C3(C)C (stereo partly specified) | > 100 µM (inactive) | > 100 µM (inactive) | > 100 µM (inactive) | > 100 µM (inactive) | > 100 µM (inactive) | > 100 µM (inactive) | > 100 µM (inactive) | > 100 µM (inactive) | > 100 µM (inactive) | > 100 µM (inactive) | > 100 µM (inactive) | > 100 µM (inactive) | > 100 µM (inactive) | > 100 µM (inactive) | > 100 µM (inactive) | > 100 µM (inactive) | – | > 100 µM (inactive) | > 100 µM (inactive) | > 100 µM (inactive)
